Results on 15 molecules are retold here after US20120225062A1 (priority 2011, published 2012).

In one assay the target is Pim 2 (Homo sapiens, UniProt Q9P1W9). Put plainly: Pim 2 AlphaScreen assay (high ATP). In general terms: Bead proximity is the source of the signal in Alpha formats.
The target of the next assay is Pim 3 (Homo sapiens, UniProt Q86V86). The experiment in a line: Pim 3 AlphaScreen assay (high ATP).
Another assay addresses Pim 1 (Homo sapiens, UniProt P11309). The experiment in a line: Pim 1 AlphaScreen assay (high ATP).
Assay [1] concerns KMS11 (human myeloma cell line). The experiment in a line: Cell Proliferation Assay (CellTiter-Glo, 3 days). It counts as cell-based. The conditions noted are these: KMS-11, 72 h, KMS11-luc cells. An outline of the steps: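 EC50 from CellTiter-Glo luminescence after 3-day, 37° C compound treatment of KMS11 cells seeded at 2000 per well in IMDM plus 10% FBS.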

Sequence of Pim 2 (Q9P1W9 whole entry): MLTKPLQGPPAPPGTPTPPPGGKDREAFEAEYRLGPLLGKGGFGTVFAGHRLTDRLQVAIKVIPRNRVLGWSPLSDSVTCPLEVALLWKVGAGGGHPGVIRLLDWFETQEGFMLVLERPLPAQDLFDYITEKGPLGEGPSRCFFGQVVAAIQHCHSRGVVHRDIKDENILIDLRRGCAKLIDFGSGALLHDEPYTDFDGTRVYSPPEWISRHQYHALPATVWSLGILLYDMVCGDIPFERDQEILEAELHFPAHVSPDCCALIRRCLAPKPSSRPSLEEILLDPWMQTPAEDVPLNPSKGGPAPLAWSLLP
Sequence of Pim 1 (P11309 whole entry): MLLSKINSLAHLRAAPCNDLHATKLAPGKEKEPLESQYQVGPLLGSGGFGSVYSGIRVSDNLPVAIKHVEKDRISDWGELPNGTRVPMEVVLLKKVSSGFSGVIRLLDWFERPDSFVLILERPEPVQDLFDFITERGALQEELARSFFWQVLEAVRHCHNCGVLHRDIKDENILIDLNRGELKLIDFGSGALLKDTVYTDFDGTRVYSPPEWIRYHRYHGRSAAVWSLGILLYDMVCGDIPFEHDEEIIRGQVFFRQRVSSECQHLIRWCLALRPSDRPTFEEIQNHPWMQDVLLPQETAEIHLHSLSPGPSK
Experimental for Pim 1: (§1) The activity of Pim 1, Pim 2, & Pim 3 is measured using a homogeneous bead based system quantifying the amount of phosphorylated peptide substrate resulting from kinase-catalyzed phosphoryl transfer to a peptide substrate. Compounds to be tested are dissolved in 100% DMSO and directly distributed to a white 384-well plate at 0.25 μl per well. […] This is followed by the addition of 5 μl/well of Pim 1, Pim 2 or Pim 3 kinase in assay buffer (concentrations described below). Final assay concentrations (described below) are in 2.5% DMSO. The reactions are performed for ˜2 hours, then stopped by the addition of 10 μl of 0.75 μg/ml anti-phospho Ser/Thr antibody (Cell Signaling), 10 μg/ml Protein A AlphaScreen beads (Perkin Elmer), and 10 μg/ml streptavidin coated AlphaScreen beads in stop/detection buffer (50 mM EDTA, 95 mM Tris, pH=7.5, 0.01% Tween-20). The stopped reactions are incubated overnight in the dark. The phosphorylated peptide is detected via an oxygen anion initiated chemiluminescence/fluorescence cascade using the Envision plate reader (Perkin Elmer).
Experimental for Pim 2: as §1

For orientation: IC50 means the midpoint of a concentration-inhibition curve. Read a low IC50 as inhibition by little substance. Usually EC50 stands for the concentration that produces a half-maximal response. Take `C[C@@H]1C[C@H](N)C[C@H](c2ccncc2NC(=O)c2nc(-c3c(F)cc(C4(O)COC4)cc3F)c(F)cc2N)C1` [Example 221, 3-amino-N-(4-((1R,3S,5S)-3-amino-5-methylcyclohexyl)pyridin-3-yl)-6-(2,6-difluoro-4-(3-hydroxyoxetan-3-yl)phenyl)-5-fluoropicolinamide]: the 50% inhibitory concentration (IC50) against Pim 2 came to 0.73 nM; against Pim 3, 0.13 nM; against Pim 1 it was 0.01 nM. The same molecule showed a half-maximal effective concentration (EC50) in assay [1] of 4 nM.
Take `Cc1cc(F)c(-c2nc(C(=O)Nc3cnccc3[C@@H]3C[C@H](C)C[C@H](N)C3)c(N)cc2F)c(F)c1` [Example 222, 3-amino-N-(4-((1R,3S,5S)-3-amino-5-methylcyclohexyl)pyridin-3-yl)-6-(2,6-difluoro-4-methylphenyl)-5-fluoropicolinamide]: the IC50 was 0.81 nM against Pim 2, 0.35 nM on Pim 3 and 0.01 nM at Pim 1. In addition, in assay [1], the EC50 was 23 nM.
As for `C[C@@H]1C[C@H](N)C[C@H](c2ccncc2NC(=O)c2ccc(F)c(-c3c(F)cc([S@+](C)[O-])cc3F)n2)C1` [Example 227, N-(4-((1R,3S,5S)-3-amino-5-methylcyclohexyl)pyridin-3-yl)-6-(2,6-difluoro-4-((S)-methylsulfinyl)phenyl)-5-fluoropicolinamide], the figures for the IC50 against Pim 2, at Pim 3 and on Pim 1 were 17.3 nM, 23.9 nM and 0.16 nM, respectively. Moreover, the midpoint of the response in assay [1], the EC50, lay at 221 nM.
Turning to `C[C@@H]1C[C@H](N)C[C@H](c2ccncc2NC(=O)c2ccc(F)c(-c3c(F)cc([S@@+](C)[O-])cc3F)n2)C1` [Example 228, N-(4-((1R,3S,5S)-3-amino-5-methylcyclohexyl)pyridin-3-yl)-6-(2,6-difluoro-4-((R)-methylsulfinyl)phenyl)-5-fluoropicolinamide], the IC50 against Pim 2 was 6.26 nM; against Pim 3 it was 7.85 nM; on Pim 1, 0.14 nM. For the same molecule, the response in assay [1] was half-maximal at 94 nM (EC50).
In the same order, the values of `C[C@@H]1C[C@H](N)C[C@H](c2ccncc2NC(=O)c2ccc(F)c(-c3c(F)cc(OCCO)cc3F)n2)C1` [Example 229, N-(4-((1R,3S,5S)-3-amino-5-methylcyclohexyl)pyridin-3-yl)-6-(2,6-difluoro-4-(2-hydroxyethoxy)phenyl)-5-fluoropicolinamide] are 2.58 nM, 0.82 nM, 0.03 nM and 26 nM.
With `C[C@@H]1C[C@H](N)C[C@H](c2ccncc2NC(=O)c2ccc(F)c(-c3c(F)cc([C@H](O)CO)cc3F)n2)C1` [Example 231, N-(4-((1R,3S,5S)-3-amino-5-methylcyclohexyl)pyridin-3-yl)-6-(4-((S)-1,2-dihydroxyethyl)-2,6-difluorophenyl)-5-fluoropicolinamide], the IC50 against Pim 2 was 2.6 nM; against Pim 3 it was 1.53 nM; on Pim 1, 0.04 nM. In assay [1], this molecule displayed an EC50 of 46 nM.
In the same order, the values of `C[C@@H]1C[C@H](N)C[C@H](c2ccncc2NC(=O)c2ccc(F)c(-c3c(F)cc([C@@H](O)CO)cc3F)n2)C1` [Example 232, N-(4-((1R,3S,5S)-3-amino-5-methylcyclohexyl)pyridin-3-yl)-6-(4-((R)-1,2-dihydroxyethyl)-2,6-difluorophenyl)-5-fluoropicolinamide] are 3.01 nM, 2.07 nM, 0.05 nM and 47 nM.
Turning to `C[C@H]1CN(c2ccncc2NC(=O)c2ccc(F)c(-c3c(F)cc([C@H](O)CO)cc3F)n2)C[C@@H](N)[C@@H]1O` [Example 233, N-(4-((3R,4R,5S)-3-amino-4-hydroxy-5-methylpiperidin-1-yl)pyridin-3-yl)-6-(4-((S)-1,2-dihydroxyethyl)-2,6-difluorophenyl)-5-fluoropicolinamide], the IC50 against Pim 2 came to 2.2 nM; on Pim 3, 1.03 nM; against Pim 1, 0.04 nM. Further, the half-maximal effective concentration (EC50) in assay [1] was 20 nM.
As for `C[C@H]1CN(c2ccncc2NC(=O)c2ccc(F)c(-c3c(F)cc([C@@H](O)CO)cc3F)n2)C[C@@H](N)[C@@H]1O` [Example 234, N-(4-((3R,4R,5S)-3-amino-4-hydroxy-5-methylpiperidin-1-yl)pyridin-3-yl)-6-(4-((R)-1,2-dihydroxyethyl)-2,6-difluorophenyl)-5-fluoropicolinamide], the IC50 against Pim 2 is 1.77 nM; on Pim 3 it was 0.65 nM; against Pim 1 it was 0.04 nM. For the same molecule, the EC50 in assay [1] was 9 nM.
In the case of `CCc1cc(F)c(-c2nc(C(=O)Nc3cnccc3N3C[C@@H](N)[C@H](O)[C@@H](C)C3)ccc2F)c(F)c1` [Example 235, N-(4-((3R,4R,5S)-3-amino-4-hydroxy-5-methylpiperidin-1-yl)pyridin-3-yl)-6-(4-ethyl-2,6-difluorophenyl)-5-fluoropicolinamide], the figures for the IC50 on Pim 2, at Pim 3 and on Pim 1 were 0.87 nM, 0.25 nM and 0.02 nM, respectively. In assay [1], this molecule displayed an EC50 of 20 nM.
Take `C[C@H]1C[C@@H](c2ccncc2NC(=O)c2ccc(F)c(-c3c(F)cc4c(c3F)OCC[C@]4(C)O)n2)C[C@@H](N)[C@@H]1O` [Example 237, N-(4-((1R,3R,4R,5S)-3-amino-4-hydroxy-5-methylcyclohexyl)pyridin-3-yl)-6-((S)-6,8-difluoro-4-hydroxy-4-methylchroman-7-yl)-5-fluoropicolinamide]: the values for the IC50 against Pim 2, at Pim 3 and against Pim 1 were 14.2 nM, 16 nM and 0.25 nM, respectively. This molecule had an EC50 in assay [1] of 181 nM.
`C[C@H]1C[C@@H](c2ccncc2NC(=O)c2ccc(F)c(-c3c(F)cc4c(c3F)OCC[C@@]4(C)O)n2)C[C@@H](N)[C@@H]1O` [Example 238, N-(4-((1R,3R,4R,5S)-3-amino-4-hydroxy-5-methylcyclohexyl)pyridin-3-yl)-6-((R)-6,8-difluoro-4-hydroxy-4-methylchroman-7-yl)-5-fluoropicolinamide]: the IC50 against Pim 2 was 3.15 nM; against Pim 3 it was 1.36 nM; on Pim 1 it was 0.04 nM. The response in assay [1] was half-maximal at 55 nM (EC50).
Consider `C[C@@H]1C[C@H](N)C[C@H](c2ccncc2NC(=O)c2ccc(F)c(-c3c(F)cc4c(c3F)OCC[C@]4(C)O)n2)C1` [Example 239, N-(4-((1R,3S,5S)-3-amino-5-methylcyclohexyl)pyridin-3-yl)-6-((S)-6,8-difluoro-4-hydroxy-4-methylchroman-7-yl)-5-fluoropicolinamide], for which the figures for the IC50 at Pim 2, on Pim 3 and against Pim 1 were 1.72 nM, 1.1 nM and 0.01 nM, respectively. Further, it took 31 nM to reach a half-maximal effect in assay [1] (EC50).
Take `C[C@@H]1C[C@H](N)C[C@H](c2ccncc2NC(=O)c2ccc(F)c(-c3c(F)cc4c(c3F)OCC[C@@]4(C)O)n2)C1` [Example 240, N-(4-((1R,3S,5S)-3-amino-5-methylcyclohexyl)pyridin-3-yl)-6-((R)-6,8-difluoro-4-hydroxy-4-methylchroman-7-yl)-5-fluoropicolinamide]: the half-inhibitory concentration (IC50) on Pim 2 is 1.67 nM; against Pim 3, 0.43 nM; against Pim 1, 0.02 nM. In assay [1], the midpoint of the response, the EC50, lay at 23 nM.
For `C[C@@H]1C[C@H](N)C[C@H](c2ccncc2NC(=O)c2nc(-c3c(F)cc(C4COC4)cc3F)c(F)cc2N)C1` [Example 241, 3-amino-N-(4-((1R,3S,5S)-3-amino-5-methylcyclohexyl)pyridin-3-yl)-6-(2,6-difluoro-4-(oxetan-3-yl)phenyl)-5-fluoropicolinamide], the results for the IC50 against Pim 2, against Pim 3 and against Pim 1 were 1.24 nM, 0.61 nM and 0.02 nM, respectively. Besides, the EC50 in assay [1] stood at 30 nM.
